# Measured values taken from patent publication US8604023B2, “1,4-benzodiazepinone compounds and their use in treating cancer” (The Regents of the University of Michigan, priority 2009, dated 2013).
# Key:
# Experiment in all cases: cancer cell growth inhibition (SRB)
# Assay type in all cases: cell-based, human
# [1] = system: HCT-116; conditions: Colon Cancer
# [2] = system: EKVX; conditions: Non-Small Cell Lung Cancer
# [3] = system: RPMI-8226; conditions: Leukemia
# [4] = system: TK-10; conditions: Renal Cancer
# [5] = system: NCI-H322M; conditions: Non-Small Cell Lung Cancer
# [6] = system: SN12C; conditions: Renal Cancer
# [7] = system: CAKI-1; conditions: Renal Cancer
# [8] = system: OVCAR-5; conditions: Ovarian Cancer
# [9] = system: SF-268; conditions: CNS Cancer
# [10] = system: SF-539; conditions: CNS Cancer
# [11] = system: SK-MEL-5; conditions: Melanoma
# [12] = system: IGROV1; conditions: Ovarian Cancer
# [13] = system: HCC-2998; conditions: Colon Cancer
# [14] = system: LOXIMVI; conditions: Melanoma
# [15] = system: ACHN; conditions: Renal Cancer
# [16] = system: MDA-MB-435; conditions: Breast Cancer
# [17] = system: OVCAR-8; conditions: Ovarian Cancer
# [18] = system: MALME-3M; conditions: Melanoma
# [19] = system: HT29; conditions: Colon Cancer
# [20] = system: MDA-MB-468; conditions: Breast Cancer
# Source text: The compounds described herein can be tested for activity against various forms of cancer by testing for inhibition of cancer cell growth using in vitro assays. For example, compounds V-23 and V-38 (See Table 5 in Example 26) where tested for efficacy in inhibiting the growth of human cancer cells using the general procedure described below. The test evaluated compound activity for inhibiting cancer cell growth in over 50 cancer cell lines, which included non-small cell lung cancer, colon cancer, breast cancer, ovarian cancer, leukemia, renal cancer, melanoma, prostate cancer, and cancer of the central nervous system tissue. […]
# Following addition of the test compound, the plates are incubated for an additional 48 h at 37° C., 5% CO2, 95% air, and 100% relative humidity. […] Bound stain is then solubilized with 10 mM trizma base, and the absorbance is read on an automated plate reader at a wavelength of 515 nm. […] Using seven absorbance measurements [time zero, (Tz), control growth, (C), and test growth in the presence of drug at the five concentration levels (Ti)], the percentage growth is calculated at each of the drug concentrations levels.
# The percentage of growth inhibition caused by the test compounds on the cancer cell lines can be calculated using the following formulae: [(Ti−Tz)/(C−Tz)]×100 for concentrations for which Ti≧Tz [(Ti−Tz)/Tz]×100 for concentrations for which Ti<Tz
# [21] = system: COLO 205; conditions: Colon Cancer
# [22] = system: UACC-257; conditions: Melanoma
# [23] = system: SR; conditions: Leukemia
# [24] = system: SK-MEL-2; conditions: Melanoma
# [25] = system: HL-60(TB); conditions: Leukemia
# [26] = system: HS 578T; conditions: Breast Cancer
# [27] = system: NCI-H23; conditions: Non-Small Cell Lung Cancer
# [28] = system: SK-OV-3; conditions: Ovarian Cancer
# [29] = system: A498; conditions: Renal Cancer
# [30] = system: OVCAR-4; conditions: Ovarian Cancer
# [31] = system: HOP-62; conditions: Non-Small Cell Lung Cancer
# [32] = system: SK-MEL-28; conditions: Melanoma
smiles,measurement,setting,value
CN1C(=O)C(Cc2ccc3ccccc3c2)N=C(c2cn[nH]c2)c2cc(Cl)ccc21 (centres unmarked) [Compound V-38],growth inhibition of the cancer cells,[1],+++ (at least 75% growth inhibition of the cancer cells)
same,growth inhibition of the cancer cells,[2],++ (40%-75% growth inhibition of the cancer cells)
same,growth inhibition of the cancer cells,[3],+ (less than 40% growth inhibition of the cancer cells)
same,growth inhibition of the cancer cells,[4],+++ (at least 75% growth inhibition of the cancer cells)
same,growth inhibition of the cancer cells,[5],+ (less than 40% growth inhibition of the cancer cells)
same,growth inhibition of the cancer cells,[6],++ (40%-75% growth inhibition of the cancer cells)
same,growth inhibition of the cancer cells,[7],+ (less than 40% growth inhibition of the cancer cells)
same,growth inhibition of the cancer cells,[8],+ (less than 40% growth inhibition of the cancer cells)
same,growth inhibition of the cancer cells,[9],+++ (at least 75% growth inhibition of the cancer cells)
same,growth inhibition of the cancer cells,[10],+++ (at least 75% growth inhibition of the cancer cells)
same,growth inhibition of the cancer cells,[11],+++ (at least 75% growth inhibition of the cancer cells)
same,growth inhibition of the cancer cells,[12],+++ (at least 75% growth inhibition of the cancer cells)
same,growth inhibition of the cancer cells,[13],+++ (at least 75% growth inhibition of the cancer cells)
same,growth inhibition of the cancer cells,[14],+++ (at least 75% growth inhibition of the cancer cells)
same,growth inhibition of the cancer cells,[15],+++ (at least 75% growth inhibition of the cancer cells)
same,growth inhibition of the cancer cells,[16],+ (less than 40% growth inhibition of the cancer cells)
same,growth inhibition of the cancer cells,[17],+ (less than 40% growth inhibition of the cancer cells)
same,growth inhibition of the cancer cells,[18],+++ (at least 75% growth inhibition of the cancer cells)
same,growth inhibition of the cancer cells,[19],+ (less than 40% growth inhibition of the cancer cells)
same,growth inhibition of the cancer cells,[20],++ (40%-75% growth inhibition of the cancer cells)
same,growth inhibition of the cancer cells,[21],++ (40%-75% growth inhibition of the cancer cells)
same,growth inhibition of the cancer cells,[22],+++ (at least 75% growth inhibition of the cancer cells)
same,growth inhibition of the cancer cells,[23],− (an apparent increase in cancer cell growth upon administration of the test compound)
same,growth inhibition of the cancer cells,[24],++ (40%-75% growth inhibition of the cancer cells)
same,growth inhibition of the cancer cells,[25],+ (less than 40% growth inhibition of the cancer cells)
same,growth inhibition of the cancer cells,[26],+ (less than 40% growth inhibition of the cancer cells)
same,growth inhibition of the cancer cells,[27],+++ (at least 75% growth inhibition of the cancer cells)
same,growth inhibition of the cancer cells,[28],+ (less than 40% growth inhibition of the cancer cells)
same,growth inhibition of the cancer cells,[29],+++ (at least 75% growth inhibition of the cancer cells)
same,growth inhibition of the cancer cells,[30],++ (40%-75% growth inhibition of the cancer cells)
same,growth inhibition of the cancer cells,[31],+++ (at least 75% growth inhibition of the cancer cells)
same,growth inhibition of the cancer cells,[32],+++ (at least 75% growth inhibition of the cancer cells)
